Test system: dopaminergic neurons
Assay: MPTP Model of Parkinson's Disease in Mice
Assay type: in vivo
Settings: recovery of TH-stained dopaminergic neurons in striatum; MPTP 30 mg/kg i.p. 5 days; test compound 4 mg/kg s.c., concurrent dosing paradigm
Experimental: MPTP lesioning of dopaminergic neurons in mice is used as an animal model of Parkinson's Disease. Four week old male CD1 white mice are dosed i.p. with 30 mg/kg of MPTP for 5 days. Test compounds (4 mg/kg), or vehicle, are administered s.c. along with the MPTP for 5 days, as well as for an additional […] following cessation of MPTP treatment. At 18 days following MPTP treatment, the animals are sacrificed and the striata dissected and perfusion-fixed. Immunostaining is performed on saggital and coronal brain sections using anti-tyrosine hydroxylase […] to quantitate survival and recovery of dopaminergic neurons. In animals treated with MPTP and vehicle, a substantial loss of functional dopaminergic terminals is observed as compared to non-lesioned animals. Lesioned animals receiving test compounds show a significant recovery of TH-stained dopaminergic neurons. This model presents quantitation for the recovery of TH-positive dopaminergic neurons in the striatum of animals receiving the compounds of the present invention. […]
Percent striatal innervation density was quantitated in brain sections with an anti-tyrosine hydroxylase immunoglobulin, which is indicative of functional dopaminergic neurons. […]

Compound: CCC(C)(C)C(=O)C(=O)N1CCS[C@H]1C(=O)O [Compound L, (2S) -1-(3,3-dimethyl-1,2-dioxopentyl) -3-thiazolidine-2-carboxylic acid]
- % Recovery: 14.0%
